Source: patent US20050026951A1, “Methods of therapeutic treatment using retinoids with reduced drug interaction” (Allergan, Inc., priority 2003, published 2005)

Key:
[1] = tested on: RXRs; test: RXR activation; assay type: cell-based
Source text: (§1) The selection of a retinoid component useful in accordance with the present invention can be accomplished using straightforward, conventional testing and/or assays, such as the transactivation assays set forth in Evans et al., U.S. Pat. No. 5,217,867; 5,262,300; 5,310,662; and 5,906,920, each of which is hereby incorporated in its entirety herein by reference, which are well known in the art. Such testing and/or assays can identify suitable useful retinoid components without undue experimentation.
In other aspects of the present invention, one or more compounds, for example, from a screening library of compounds, which are known to have or have been tested, using conventional and well known techniques, and found to have useful RAR activity, can be individually or collectively tested for RXR activity using conventional and well known testing procedures. See, for example, the above-noted Evans et al. patents, in particular U.S. Pat. No. 5,906,920.

[2] = tested on: RARs; test: RAR activation and subtype selectivity; assay type: cell-based
Source text: as §1
Other well known and straightforward test methods and/or assays may be employed to determine the selectivity or specificity of an RAR active compound to RAR-alpha, RAR-beta and RAR-gamma. For example, using conventional and well known assays, for example, such as set forth in Klein et al. U.S. Pat. No. 5,776,699, the disclosure of which is incorporated in its entirety herein by reference, and/or the above-noted Evans et al. patents, the selectively or specificity of a compound to RAR-alpha, RAR-beta and RAR-gamma can be determined. Based on the results of such assays, one can determine whether or not a compound is useful in accordance with one or more aspects of the present invention.

[3] = oral; cited from earlier work
[4] = relative to tamoxifen in the absence of bexarotene; cited from earlier work
[5] = tested on: sebaceous glands; details: severe acne; cited from earlier work
[6] = tested on: patients; test: Two 24-week placebo-controlled safety studies of oral tazarotene plus 16- to 24-week dose-response evaluations; assay type: in vivo, human; details: 4.5 mg orally once daily
Experimental: Two multicenter, double-blind, randomized, placebo-controlled 24-week studies of identical design are conducted to evaluate the safety of oral tazarotene. In addition, 16- to 24-week dose-response evaluations are performed.
In the two safety trials, the incidence of adverse side effects with a 4.5 mg dose administered orally once daily is compared to the incidence of the same side effects with a placebo. […] The majority of these were mild in severity and typical of adverse effects associated with oral retinoids.

[7] = tested on: patients with moderate to very severe plaque psoriasis; test: Open-label extension study of oral tazarotene in plaque psoriasis non-responders; assay type: in vivo, human; details: 4.5 mg once daily, extension treatment period, across both groups
Experimental: Two multicenter, double-blind, placebo-controlled studies ware conducted to evaluate the efficacy and safety of oral tazarotene (4.5 mg once daily) in patients with moderate to very severe plaque psoriasis. […] Efficacy evaluations include overall lesional assessment (OLA), percent body surface area involvement, global response to treatment, plaque elevation, scaling, and erythema. OLA is graded on a 6-point scale (0=none, 1=minimal, 2=mild, 3=moderate, 4=severe, 5=very severe).

[8] = tested on: patients having nodulocystic acne; test: Two placebo-controlled dose-ranging safety studies of oral tazarotene in nodulocystic acne; assay type: in vivo, human; details: for Emotional lability, patients: all cases mild
Experimental: Two placebo-controlled dose-ranging studies are conducted to evaluate the safety of oral tazarotene in patients having nodulocystic acne. In the first study, patients receive orally administered tazarotene at daily doses of 0.4 mg to 2.8 mg in 96 (71+25) patients (12 weeks treatment plus 12 weeks post-treatment). In the second study, daily doses of 0.75 mg to 6 mg tazarotene are administered to 181 patients (24 weeks treatment plus 12 weeks post-treatment).

[9] = tested on: patients with severe nodulocystic acne; test: Multicenter double-blind placebo-controlled study of oral tazarotene in severe nodulocystic acne; assay type: in vivo, human
Source text: A multicenter, double-blind, randomized, placebo-controlled parallel-group study is undertaken to determine the efficacy of orally administered tazarotene in treating severe nodulocystic acne.
In addition, washout periods for other medications for this study are: 1 week for vitamin A supplements >5000 IU; 2 weeks for topical anti-acne medications (e.g., retinoids, azelaic acid, benzoyl peroxide); 2 weeks for topical or systemic antibiotic therapy that may alter the course of acne; and 6 months for systemic retinoids.
Patients are randomized to receive placebo or oral tazarotene (0.75, 1.5, 3, or 6 mg), in a 1:1:1:1:1 ratio once daily for 24 weeks. After this, the patients are followed without treatment for an additional 12 weeks. Patients discontinuing from the treatment period due to adverse effects or lack of efficacy are eligible for entry into the post-treatment phase.
In the study, overall acne severity is rated as: none (no inflammatory acne lesions); mild (few to several papules or pustules, no nodulocystic lesions); moderate (several to many papules or pustules, few to several nodulocystic lesions); and severe (numerous or extensive papules or pustules, many, for example, at least about 5 or at least about 10, nodulocystic lesions).
Treatment success is defined as at least moderate (about 50%) improvement on the following 7-point global response scale: • 0=completely cleared • 1=almost cleared (about 90% improvement) • 2=marked response (about 75% improvement) • 3=moderate response (about 50% improvement) • 4=slight response (about 25% improvement) • 5=condition unchanged • 6=condition worsened
In this study, facial nodulocystic lesion count includes lesions greater than 5 mm in size. Facial papular/pustular lesion count includes lesions less than or equal to 5 mm in size. Facial non-inflammatory lesion count includes open and closed comedones.
Sebum output is assessed every 4 weeks at selected centers using the Sebutape® patches, sold by Cuderm Corporation. Urinalysis, chemistry, and hematology values are monitored. Bone formation and resorption assessments (serum bone alkaline phosphatase and serum amino terminal telopeptides, respectively) at selected centers are monitored.
Bone mineral density of spine and proximal femur at selected centers is monitored. Ligament calcification or osteophyte formation (lateral X-ray of the cervical and thoracic spine, and ankle calcaneous) is monitored. Epiphyseal growth plate closure (internal oblique X-ray of the ankle in patients less than or equal to 21 years old) is monitored.

[10] = Food effect on pharmacokinetics of tazarotenic acid after 6.3 mg oral tazarotene (high-fat breakfast vs 8-10 hour fast); assay type: in vivo, human; details: fed (high-fat meal) vs fasted
Experimental: For the purposes of this application, the bioavailability of a drug may be based on the human pharmokinetic parameters of maximum blood concentration (Cmax) and Area under the blood concentration-time curve (AUC).
The LC-MS/MS test for simultaneous detection of tazarotene and tazarotenic acid may be run as follows. One ml of plasma (EDTA-treated) is diluted with 1.0 ml of water. Diluted plasma is extracted using solid phase extraction (SPE) on a C18 cartridge. The eluate is evaporated, reconstituted in a water/methanol-based mobile phase, and injected onto a 4.6×50 mm, 3 μm pore size C-8 reverse phase high pressure liquid chromatography (HPLC) column (Agilent, Wilmington, Del.). Compounds are gradient-eluted at 1.2 mL/min and detected using an API 3000 triple quadrupole mass spectrometer with an Atmospheric Pressure Chemical Ionization (APCI) source (PE-Sciex, Concord, Ontario, Canada). […] The specific precursor-product ion pair monitored are m/z 352→324 for tazarotene, m/z […] for the tazarotene internal standard, m/z 324→294 for tazarotenic acid, and m/z 331→298 for the tazarotenic acid internal standard. The lower limit of quantitation at assay range tested is 0.1 ng/mL, with a coefficient of variation and deviation from nominal concentration of <15%.

## CC1(C)CC[S+]([O-])c2ccc(C#Cc3ccc(C(=O)O)cn3)cc21 (stereo not drawn) [AGN 190844]
[1]
  Activation of the RXRs: does not activate
[2]
  Activation of the RARs: does not activate

## COc1cc(C)c(/C=C/C(C)=C/C=C/C(C)=C/C(=O)O)c(C)c1C [acitretin]
[3]
  Bioavailability in the presence of food: increased in the presence of food

## C=C(c1ccc(C(=O)O)cc1)c1cc2c(cc1C)C(C)(C)CCC2(C)C [bexarotene]
[3]
  Bioavailability in the presence of food: increased in the presence of food
[4]
  Plasma concentration of coadministered tamoxifen: reduced plasma concentration of tamoxifen

## CC1=C(/C=C/C(C)=C/C=C/C(C)=C\C(=O)O)C(C)(C)CCC1 [isotretinoin]
[3]
  Bioavailability in the presence of food: increased in the presence of food
[5]
  Decrease in sebum secretion rate: about 90%

## CCOC(=O)c1ccc(C#Cc2ccc3c(c2)C(C)(C)CCS3)nc1 [tazarotene]
[6]
  Incidence of altered hormone levels (elevated TSH and T4, decreased T4, abnormal thyroid function test): 0%
[6]; vs placebo
  Incidence of hypertriglyceridemia, hypercholesterolemia, abnormal liver function tests, increased ALT, increased AST, desquamation, eye dryness, alopecia: essentially the same incidence with oral tazarotene as with placebo
[7]
  Incidence of arthralgia: 20%
  Incidence of asthenia: 6%
  Incidence of back pain: 11%
  Incidence of cheilitis: 70%
  Incidence of dry skin: 25%
  Incidence of headache: 11%
  Incidence of hypertriglyceridemia: 6%
  Incidence of infection: 10%
  Incidence of myalgia: 15%
[8]; 3 mg and 6 mg groups
  Severe dry skin: No patient
[8]; 3 mg group (1 patient)
  Emotional lability, patients: 3%
[8]; 3 mg group (3 patients: 2 mild, 1 severe)
  Depression, patients: 8%
[8]; 6 mg group (5 patients)
  Emotional lability, patients: 14%
[8]; 0.4 to 6 mg daily
  Changes in urinalysis, chemistry, or hematology measures (liver function tests, triglycerides, total cholesterol, HDL cholesterol): no consistent dose-related clinically significant changes
  Ligament calcification, osteophyte formation, changes in serum bone alkaline phosphatase, serum amino terminal telopeptides, bone density: not associated with any clinically significant
[8]; all groups of both studies incl. placebo (7/277)
  Patients withdrawing from either study due to adverse events: 2.5%
[9]; 0.75 mg group (2/35)
  Patients withdrawing due to adverse events, treatment period: 6%
[9]; 1.5 mg group (0/37)
  Patients withdrawing due to adverse events, treatment period: 0%
[9]; 3 mg group (2/37)
  Patients withdrawing due to adverse events, treatment period: 5%
[9]; 6 mg group (1/36)
  Patients withdrawing due to adverse events, treatment period: 3%
[9]; 6 mg, from week 16 until end of post-treatment phase (p ≦0.01)
  Reduction of overall acne severity vs placebo: significantly more than placebo
[9]; 0.75 to 6 mg once daily, 24 weeks
  Abnormalities in liver function test results or elevated triglycerides, total cholesterol, or HDL cholesterol: not generally associated
[9]; 0.75 to 6 mg once daily, assessed every 4 weeks
  Sebum secretion (Sebutape method) relative to placebo: does not substantially reduce sebum secretion

## CC1(C)CCSc2ccc(C#Cc3ccc(C(=O)O)cn3)cc21 [tazarotenic acid]
[10]; Day 0
  Cmax average ratio (test/reference) of tazarotenic acid: 1.00
[10]; Day 9
  Cmax average ratio (test/reference) of tazarotenic acid: 0.829
[1]
  Activation of the RXRs: does not activate
[2]
  RAR subtype selectivity: selectivity for RAR-β and RAR-γ
